# Test results from ChEMBL document CHEMBL5579842, “Modulation of endogenous opioid signaling by inhibitors of puromycin-sensitive aminopeptidase” (Eur J Med Chem, 2024).
# The source made the active and inactive calls. No cut-off for these calls is given here.
# Columns and labels:
# [1] = Cytotoxicity against African green monkey Vero cells by MTT assay; assay type: toxicity, cell-based; details: chlorocebus sabaeus
# [2] = test system: Vero; assay: Inhibition of protein synthesis in African green monkey Vero cells at 25 uM relative to control; assay type: functional; details: Chlorocebus sabaeus
# [3] = biological target: T1, Aminopeptidase N (Homo sapiens, UniProt P15144); assay: Inhibition of Aminopeptidase N (unknown origin) using Ala-AMC as substrate incubated for 30 mins by SpectraMax microplate reader analysis
# [4] = biological target: T1, Aminopeptidase N; assay: Inhibition of Aminopeptidase N (unknown origin) using Ala-AMC as substrate at 10 uM incubated for 30 mins by SpectraMax microplate reader analysis relative to control
# [5] = test system: Mus musculus; assay: Antinociceptive activity in CF-1 mouse assessed as increase in maximal possible effect at 50 to 100 ug,icv administration measured after 60 mins by tail-flick test; assay type: functional, organism-based; details: dose 50-100 µg
# [6] = test system: Mus musculus; assay: Antinociceptive activity in CF-1 mouse assessed as increase in maximal possible effect at 50 to 100 ug,icv administration in presence of Met-enkephalin measured after 15 mins by hot plate assay; assay type: functional, organism-based; details: dose 50-100 µg
# [7] = test system: Mus musculus; assay: Antinociceptive activity in CF-1 mouse assessed as increase in maximal possible effect at 50 to 100 ug,icv administration in presence of Met-enkephalin measured after 65 mins by tail-flick test; assay type: functional, organism-based; details: dose 50-100 µg
# [8] = Stability in mouse plasma assessed as compound remaining at 1 uM measured after 24 hr by LC-MS/MS analysis relative to control; assay type: ADME, cell-free
# [9] = biological target: Puromycin-sensitive aminopeptidase (Homo sapiens, UniProt P55786); assay: Inhibition of human N-terminal His-tagged Puromycin-sensitive aminopeptidase extracted from Escherichia coli BL21 STAR (DE3) using alanine-4-methoxy-2-naphthylamide as substrate incubated for 30 mins by SpectraMax microplate reader analysis
# [10] = test system: Mus musculus; assay: Antinociceptive activity in CF-1 mouse assessed as analgesic effect at 50 to 100 ug,icv administration measured after 15 mins by hot plate assay; assay type: functional, organism-based; details: dose 50-100 µg
# [11] = test system: Mus musculus; assay: Antinociceptive activity in CF-1 mouse assessed as analgesic effect at ip administration measured after 60 mins by tail-flick test; assay type: functional, organism-based
# [12] = test system: Mus musculus; assay: Antinociceptive activity in CF-1 mouse assessed as increase in MERF level in brain at 50 to 100 ug,icv administration in presence of KCL measured after 65 mins by LC-MS/MS analysis; assay type: functional, organism-based; details: dose 50-100 µg
# [13] = test system: Mus musculus; assay: Antinociceptive activity in CF-1 mouse assessed as increase in maximal possible effect at 50 to 100 ug,icv administration in presence of naloxone measured after 65 mins by tail-flick test; assay type: functional, organism-based; details: dose 50-100 µg
# [14] = test system: Mus musculus; assay: Antinociceptive activity in CF-1 mouse assessed as increase in maximal possible effect at 50 to 100 ug,icv administration measured after 15 mins by tail-flick test; assay type: functional, organism-based; details: dose 50-100 µg
# [15] = test system: Mus musculus; assay: Antinociceptive activity in CF-1 mouse assessed as increase in maximal possible effect at 50 to 100 ug,icv administration in presence of naloxone measured after 15 mins by tail-flick test; assay type: functional, organism-based; details: dose 50-100 µg
# [16] = test system: Mus musculus; assay: Antinociceptive activity in CF-1 mouse assessed as increase in maximal possible effect at 50 to 100 ug,icv administration in presence of naloxone measured after 65 mins by hot plate assay; assay type: functional, organism-based; details: dose 50-100 µg
# [17] = test system: Mus musculus; assay: Antinociceptive activity in CF-1 mouse assessed as increase in maximal possible effect at 50 to 100 ug,icv administration in presence of Met-enkephalin measured after 65 mins by hot plate assay; assay type: functional, organism-based; details: dose 50-100 µg
# [18] = test system: Mus musculus; assay: Antinociceptive activity in CF-1 mouse assessed as increase in maximal possible effect at 50 to 100 ug,icv administration in presence of Met-enkephalin measured after 15 mins by tail-flick test; assay type: functional, organism-based; details: dose 50-100 µg
# [19] = test system: Mus musculus; assay: Antinociceptive activity in CF-1 mouse assessed as increase in maximal possible effect at 50 to 100 ug,icv administration in presence of naloxone measured after 15 mins by hot plate assay; assay type: functional, organism-based; details: dose 50-100 µg
# [20] = test system: Mus musculus; assay: Antinociceptive activity in CF-1 mouse assessed as increase in Met-enkephalin level in brain at 50 to 100 ug,icv administration in presence of KCL measured after 65 mins by LC-MS/MS analysis; assay type: functional, organism-based; details: dose 50-100 µg
# [21] = test system: Mus musculus; assay: Antinociceptive activity in CF-1 mouse assessed as analgesic effect at ip administration measured after 15 mins by hot plate assay; assay type: functional, organism-based
# [22] = test system: Mus musculus; assay: Antinociceptive activity in CF-1 mouse assessed as analgesic effect at 50 to 100 ug,icv administration measured after 45 mins by tail-flick test; assay type: functional, organism-based; details: dose 50-100 µg
# [23] = test system: Mus musculus; assay: Antinociceptive activity in CF-1 mouse assessed as analgesic effect at 50 to 100 ug,icv administration measured after 60 mins by tail-flick test; assay type: functional, organism-based; details: dose 50-100 µg
# [24] = test system: Mus musculus; assay: Antinociceptive activity in CF-1 mouse assessed as increase in Leu-enkephalin level in brain at 50 to 100 ug,icv administration in presence of KCL measured after 65 mins by LC-MS/MS analysis; assay type: functional, organism-based; details: dose 50-100 µg
# T1 sequence (P15144 whole entry): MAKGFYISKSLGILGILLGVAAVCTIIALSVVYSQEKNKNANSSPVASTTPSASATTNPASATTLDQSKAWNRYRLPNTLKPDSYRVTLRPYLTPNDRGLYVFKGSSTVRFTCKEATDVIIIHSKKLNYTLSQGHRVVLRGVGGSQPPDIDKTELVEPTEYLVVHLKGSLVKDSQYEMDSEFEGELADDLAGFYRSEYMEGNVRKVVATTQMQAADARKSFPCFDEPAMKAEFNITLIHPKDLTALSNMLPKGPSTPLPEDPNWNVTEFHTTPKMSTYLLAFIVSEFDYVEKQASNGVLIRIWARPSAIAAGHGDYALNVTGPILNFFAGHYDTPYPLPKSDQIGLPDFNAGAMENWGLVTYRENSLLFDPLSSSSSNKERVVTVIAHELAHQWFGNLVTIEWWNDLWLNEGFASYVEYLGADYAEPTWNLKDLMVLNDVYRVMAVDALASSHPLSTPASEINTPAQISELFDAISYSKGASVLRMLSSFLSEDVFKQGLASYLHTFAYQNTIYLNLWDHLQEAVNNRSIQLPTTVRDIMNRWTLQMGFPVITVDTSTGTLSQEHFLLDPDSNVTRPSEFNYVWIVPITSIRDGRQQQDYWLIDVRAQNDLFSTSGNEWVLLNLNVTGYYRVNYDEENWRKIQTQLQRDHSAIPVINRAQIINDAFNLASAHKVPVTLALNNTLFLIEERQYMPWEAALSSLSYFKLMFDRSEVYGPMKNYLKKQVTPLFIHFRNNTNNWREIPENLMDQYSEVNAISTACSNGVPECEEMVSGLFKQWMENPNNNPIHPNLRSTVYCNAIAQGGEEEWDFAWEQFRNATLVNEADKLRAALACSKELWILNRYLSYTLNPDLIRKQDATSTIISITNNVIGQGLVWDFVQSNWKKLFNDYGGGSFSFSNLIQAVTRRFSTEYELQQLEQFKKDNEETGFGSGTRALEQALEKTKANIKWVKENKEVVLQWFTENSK
# Puromycin-sensitive aminopeptidase, sequence (P55786 whole entry): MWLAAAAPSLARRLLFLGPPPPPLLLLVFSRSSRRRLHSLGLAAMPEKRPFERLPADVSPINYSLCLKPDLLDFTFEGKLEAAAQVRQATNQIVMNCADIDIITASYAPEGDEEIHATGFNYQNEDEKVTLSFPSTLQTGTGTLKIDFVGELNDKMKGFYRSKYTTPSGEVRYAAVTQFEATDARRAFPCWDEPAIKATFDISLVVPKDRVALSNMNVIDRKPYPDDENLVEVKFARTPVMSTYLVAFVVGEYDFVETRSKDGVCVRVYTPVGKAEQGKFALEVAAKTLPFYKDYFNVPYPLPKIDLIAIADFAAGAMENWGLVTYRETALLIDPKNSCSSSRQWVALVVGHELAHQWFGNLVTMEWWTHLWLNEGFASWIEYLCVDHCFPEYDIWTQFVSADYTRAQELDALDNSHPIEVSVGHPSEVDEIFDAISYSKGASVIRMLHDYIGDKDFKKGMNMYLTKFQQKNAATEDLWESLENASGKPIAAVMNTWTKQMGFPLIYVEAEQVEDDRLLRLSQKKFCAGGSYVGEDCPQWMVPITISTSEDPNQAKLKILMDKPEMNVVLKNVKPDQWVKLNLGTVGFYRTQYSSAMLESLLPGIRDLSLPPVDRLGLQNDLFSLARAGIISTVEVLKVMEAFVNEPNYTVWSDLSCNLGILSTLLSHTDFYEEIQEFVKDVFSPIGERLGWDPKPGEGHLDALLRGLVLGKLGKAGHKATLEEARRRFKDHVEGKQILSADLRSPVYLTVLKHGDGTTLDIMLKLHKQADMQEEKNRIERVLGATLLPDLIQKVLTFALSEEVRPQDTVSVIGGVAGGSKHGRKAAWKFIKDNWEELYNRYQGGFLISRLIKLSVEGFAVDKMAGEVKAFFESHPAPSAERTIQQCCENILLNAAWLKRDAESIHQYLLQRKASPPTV
structure (smiles),measurement,setting,value
CC(C)C[C@H](NC(=O)[C@@H](O)[C@H](N)Cc1ccccc1)C(=O)O [UBENIMEX],CC50,[1],25 µM
same,inhibition at 25 µM,[2],28%
COc1ccc(C[C@H](N)C(=O)N[C@H]2[C@@H](O)[C@H](n3cnc4c(N(C)C)ncnc43)O[C@@H]2CCl)cc1,inhibition at 25 µM,[2],26.1%
same,IC50,[3],> 100 µM
CN(C)c1ncnc2c1ncn2[C@@H]1O[C@H](CO)[C@@H](NC(=O)[C@@H](N)CSC23CC4CC(CC(C4)C2)C3)[C@H]1O,inhibition,[4],99.1%
same,CC50,[1],17.6 µM
same,inhibition at 25 µM,[2],24%
CN(C)c1ncnc2c1ncn2[C@@H]1O[C@H](CCl)[C@@H](NC(=O)[C@@H](N)CSC(c2ccccc2)c2ccccc2)[C@H]1O,Activity,[5],Active
same,Activity,[6],Active
same,Activity,[7],Active
same,inhibition,[4],55.8%
same,Stability,[8],116.7%
same,IC50,[9],0.007 µM
same,Activity,[10],Active
same,Activity,[11],inactive
same,Activity,[12],Active
same,Activity,[13],inactive
same,Activity,[14],Active
same,Activity,[15],inactive
same,CC50,[1],> 100 µM
same,Activity,[16],inactive
same,Activity,[17],Active
same,Activity,[18],Active
same,Activity,[19],inactive
same,Activity,[20],inactive
same,Activity,[21],inactive
same,Activity,[22],Active
same,Activity,[23],Active
same,inhibition at 25 µM,[2],0%
same,IC50,[3],2.6 µM
same,Activity,[24],Active
CN(C)c1ncnc2c1ncn2[C@@H]1O[C@H](CCl)[C@@H](NC(=O)[C@H](CSC23CC4CC(CC(C4)C2)C3)NC(=O)OC(C)(C)C)[C@H]1O,inhibition,[4],0%
same,inhibition at 25 µM,[2],22.1%
CN(C)c1ncnc2c1ncn2[C@@H]1O[C@H](CCl)[C@@H](NC(=O)[C@H](N)CSC(c2ccccc2)c2ccccc2)[C@H]1O,inhibition,[4],38.9%
same,inhibition at 25 µM,[2],0%
COc1ccc(C[C@H](N)C(=O)N[C@H]2[C@@H](O)[C@H](n3cnc4c(N(C)C)ncnc43)O[C@@H]2CO)cc1 [PUROMYCIN],CC50,[1],2.76 µM
same,inhibition at 25 µM,[2],99%
CN(C)c1ncnc2c1ncn2[C@@H]1O[C@H](CO)[C@@H](NC(=O)[C@@H](N)CSC(c2ccccc2)c2ccccc2)[C@H]1O,IC50,[9],0.007 µM
same,CC50,[1],> 100 µM
same,inhibition at 25 µM,[2],0%
O=C(O)CNC(=O)C(CS)Cc1ccccc1 (centres undefined) [THIORPHAN],inhibition,[4],0%
same,IC50,[9],57.3 µM
same,CC50,[1],> 100 µM
same,inhibition at 25 µM,[2],70.3%
same,IC50,[3],> 100 µM
CN(C)c1ncnc2c1ncn2[C@@H]1O[C@H](CCl)[C@@H](NC(=O)[C@@H](CSC(c2ccccc2)c2ccccc2)NC(=O)OC(C)(C)C)[C@H]1O,inhibition,[4],0%
same,CC50,[1],67.4 µM
same,inhibition at 25 µM,[2],0%
CN(C)c1ncnc2c1ncn2[C@@H]1O[C@H](CO)[C@@H](NC(=O)[C@H](N)CSC(c2ccccc2)c2ccccc2)[C@H]1O,CC50,[1],46 µM
same,inhibition at 25 µM,[2],0%
CN(C)c1ncnc2c1ncn2[C@@H]1O[C@H](CCl)[C@@H](NC(=O)[C@@H](N)CSC23CC4CC(CC(C4)C2)C3)[C@H]1O,inhibition,[4],99.1%
same,IC50,[9],0.005 µM
same,inhibition at 25 µM,[2],10.4%
same,IC50,[3],0.084 µM
CC(C)C[C@@H](C(=O)N[C@H](C(=O)OC1CCCC1)c1ccccc1)[C@H](O)C(=O)NO [TOSEDOSTAT],CC50,[1],12.7 µM
same,inhibition at 25 µM,[2],34.5%
CN(C)c1ncnc2c1ncn2[C@@H]1O[C@H](CCl)[C@@H](NC(=O)[C@H](CSC(c2ccccc2)c2ccccc2)NC(=O)OC(C)(C)C)[C@H]1O,inhibition,[4],4.6%
same,CC50,[1],> 100 µM
same,inhibition at 25 µM,[2],3%
